# Results taken from patent US20180228795A1, “COMBINATION THERAPY FOR CANCER” (Eli Lilly and Company, priority 2015, published 2018).
# Columns and labels:
# Assay in all cases: Antitumor effects in PDX mouse model of TNBC
# Type in all cases: in vivo
# PDX TNBC Model CTG-0012 = settings: PDX model CTG-0012; A 10 mg/kg SC BID 3 days on/4 off ×4; B 7.5 mg/kg PO BID×28; versus vehicle
# From the text: (§1) Establish PDX tumor models from viable human tumor tissue and serially passage in immunocompromised female mice a limited number of times. Using tumor fragments harvested from donor host animals, perform unilateral subcutaneous implants from a specific passage of the PDX tumor model on the flanks of the experimental animals. When tumor volumes reach approximately 150-250 mm^3 in size, randomize the animals by treatment arm by randomization techniques well known in the art and place into their respective treatment groups using 1 animal per treatment group (3 animals in an untreated group). Formulate CHK1 inhibitor, 5-(5-(2-(3-aminopropoxy)-6-methoxyphenyl)-1H-pyrazol-3-ylamino)pyrazine-2-carbonitrile methanesulfonate hydrate, (Compound A) every 14 days in 20% captisol (dissolved in water) and administer subcutaneously twice daily at a dose of 10 mg/kg on days 1/2/3 of a weekly cycle for 4 weeks (SC, BID [3 days on/4 off]×4). Formulate the PI3K/mTOR dual inhibitor, 8-[5-(1-hydroxy-1-methylethyl)pyridin-3-yl]-1-[(2S)-2-methoxypropyl]-3-methyl-1,3-dihydro-2H-imidazo[4,5-c]quinolin-2-one, (Compound B) weekly in 1% (HEC)/0.25% Tween 80 (Polysorbate 80)/0.05% Dow-Corning Antifoam 1510-US and administer by oral gavage twice-daily for 28 days (PO, BID×28) at a dose of 7.5 mg/kg. Dose combination treatment animals with both compounds according to the schedule described above for monotherapy, and dose vehicle treatment animals with vehicle according to the schedule for Compound B.
# (§2) Test the combination of Compound A and Compound B, as well as their respective monotherapies, in 40 PDX models (Table 1) of TNBC. Assess antitumor efficacy of the treatment groups by measuring tumor volume via caliper measurements twice a week during the course of the study. Measure body weight twice weekly during the course of the study as a general indicator of tolerability.
# (§3) Capture tumor size and body weight twice per week. Estimate tumor volume (V) by using the formula: V=(π/6)×L×W^2 where L=larger of measured diameter and W=smaller perpendicular diameter. Calculate relative tumor volume using the tumor volume measurement taken nearest to the last day of dosing for each animal (T), divided by the baseline tumor volume for that animal (T0), which is the volume recorded on or just prior to the first day of dosing, Y=T/T0. Calculate % ΔT/ΔC values using the formula % ΔT/ΔC=100(YT−1)/(YC−1), whereby YT or YC=geometric mean relative volume of the compound treated group or the control group, respectively. Tumor growth inhibition is observed in those instances where the calculated values for % ΔT/ΔC are less than 100% whereby greater inhibition results in smaller % ΔT/ΔC values. If ΔT<0, then a tumor regression value is calculated instead of % ΔT/ΔC whereby % Regression=100(YT−1). Note that negative values indicate regression. We collectively refer to % ΔT/ΔC and % Regression as % Response.
# (§4) Examine relative tumor volume (final volume divided by baseline volume) on the last day of treatment or the last day on which data from all three treatment groups and vehicle is available, if it is earlier than the last day of treatment and at least 14 days after baseline. Expected additive relative volume is determined using the Bliss method (Bliss, C. I., Ann Appl Biol, 1939; 26(3):585-615). Specifically, denoting Y=relative volume, YExp=(Y1*Y2)/YV, where YExp=expected additive relative volume, Y1 and Y2 are the relative volumes in the single agent groups (Compound A and Compound B), and YV is the relative volume in the vehicle group. A range of additivity is defined around the expected additive relative volume via upper and lower limits as follows:
# (§5) Yupper=max(2*YExp,YExp+0.2)
# (§6) Ylower=min(YExp/2,YExp−0.2)
# (§7) The upper limit of the range is the larger of 2-fold above or 20% above the expected additive relative volume, and the lower limit is the smaller of 2-fold below or 20% below the expected additive relative volume. […]
# PDX TNBC Model MAXF 1384 = settings: PDX model MAXF 1384; A 10 mg/kg SC BID 3 days on/4 off ×4; B 7.5 mg/kg PO BID×28; versus vehicle
# From the text: as §1, §2, §3, §4, §5, §6, §7
# PDX TNBC Model CTG-1019 = settings: PDX model CTG-1019; A 10 mg/kg SC BID 3 days on/4 off ×4; B 7.5 mg/kg PO BID×28; versus vehicle
# From the text: as §1, §2, §3, §4, §5, §6, §7
# PDX TNBC Model CTG-0888 = settings: PDX model CTG-0888; A 10 mg/kg SC BID 3 days on/4 off ×4; B 7.5 mg/kg PO BID×28; versus vehicle
# From the text: as §1, §2, §3, §4, §5, §6, §7
# PDX TNBC Model CTG-0670 = settings: PDX model CTG-0670; A 10 mg/kg SC BID 3 days on/4 off ×4; B 7.5 mg/kg PO BID×28; versus vehicle
# From the text: as §1, §2, §3, §4, §5, §6, §7
# PDX TNBC Model MAXF 449 = settings: PDX model MAXF 449; A 10 mg/kg SC BID 3 days on/4 off ×4; B 7.5 mg/kg PO BID×28; versus vehicle
# From the text: as §1, §2, §3, §4, §5, §6, §7
# PDX TNBC Model CTG-0437 = settings: PDX model CTG-0437; A 10 mg/kg SC BID 3 days on/4 off ×4; B 7.5 mg/kg PO BID×28; versus vehicle
# From the text: as §1, §2, §3, §4, §5, §6, §7
# PDX TNBC Model CTG-1167 = settings: PDX model CTG-1167; A 10 mg/kg SC BID 3 days on/4 off ×4; B 7.5 mg/kg PO BID×28; versus vehicle
# From the text: as §1, §2, §3, §4, §5, §6, §7
# PDX TNBC Model MAXF 574 = settings: PDX model MAXF 574; A 10 mg/kg SC BID 3 days on/4 off ×4; B 7.5 mg/kg PO BID×28; versus vehicle
# From the text: as §1, §2, §3, §4, §5, §6, §7
# PDX TNBC Model CTG-0018 = settings: PDX model CTG-0018; A 10 mg/kg SC BID 3 days on/4 off ×4; B 7.5 mg/kg PO BID×28; versus vehicle
# From the text: as §1, §2, §3, §4, §5, §6, §7
# PDX TNBC Model ST069 = settings: A 10 mg/kg SC BID 3 days on/4 off ×4, B 7.5 mg/kg PO BID×28, versus vehicle
# From the text: as §1, §2, §3, §4, §5, §6, §7
# PDX TNBC Model ST518 = settings: A 10 mg/kg SC BID 3 days on/4 off ×4, B 7.5 mg/kg PO BID×28, versus vehicle
# From the text: as §1, §2, §3, §4, §5, §6, §7
Compound,% Rsp. (% ΔT/ΔC or % Regression) (PDX TNBC Model CTG-0012),% Rsp. (% ΔT/ΔC or % Regression) (PDX TNBC Model MAXF 1384),% Rsp. (% ΔT/ΔC or % Regression) (PDX TNBC Model CTG-1019),% Rsp. (% ΔT/ΔC or % Regression) (PDX TNBC Model CTG-0888),% Rsp. (% ΔT/ΔC or % Regression) (PDX TNBC Model CTG-0670),% Rsp. (% ΔT/ΔC or % Regression) (PDX TNBC Model MAXF 449),% Rsp. (% ΔT/ΔC or % Regression) (PDX TNBC Model CTG-0437),% Rsp. (% ΔT/ΔC or % Regression) (PDX TNBC Model CTG-1167),% Rsp. (% ΔT/ΔC or % Regression) (PDX TNBC Model MAXF 574),% Rsp. (% ΔT/ΔC or % Regression) (PDX TNBC Model CTG-0018),% Rsp. (% ΔT/ΔC or % Regression) (PDX TNBC Model ST069),% Rsp. (% ΔT/ΔC or % Regression) (PDX TNBC Model ST518)
"CO[C@@H](C)Cn1c(=O)n(C)c2cnc3ccc(-c4cncc(C(C)(C)O)c4)cc3c21 [Compound B, 8-[5-(1-hydroxy-1-methylethyl)pyridin-3-yl]-1-[(2S)-2-methoxypropyl]-3-methyl-1,3-dihydro-2H-imidazo[4,5-c]quinolin-2-one]",49.0%,60.3%,158.0%,21.2%,117.6%,34.7%,80.3%,65.8%,59.4%,86.0%,112.0%,66.5%
"COc1cccc(OCCCN)c1-c1cc(Nc2cnc(C#N)cn2)n[nH]1.CS(=O)(=O)O [Compound A, 5-(5-(2-(3-aminopropoxy)-6-methoxyphenyl)-1H-pyrazol-3-ylamino)pyrazine-2-carbonitrile methanesulfonate hydrate]",33.4%,52.8%,86.6%,15.0%,112.8%,−100.0%,−87.5%,62.3%,22.9%,−57.6%,−79.6%,−23.4%
